ChEMBL document CHEMBL3431459, “Roche carnitine palmitoyltransferase modulator screening data (supplementary data associated with the publication CHEMBL2216752)”
In brackets after ≈: the same amount, converted by molar mass.

What was measured:
[1] = target: T1, Carnitine O-palmitoyltransferase 1, muscle isoform (Homo sapiens, UniProt Q92523); test: SUPPLEMENTARY: Inhibition of Carnitine palmitoyltransferase 1, muscle isoform; set-up: species or system Muscle tissue
T1 sequence (Q92523 whole entry): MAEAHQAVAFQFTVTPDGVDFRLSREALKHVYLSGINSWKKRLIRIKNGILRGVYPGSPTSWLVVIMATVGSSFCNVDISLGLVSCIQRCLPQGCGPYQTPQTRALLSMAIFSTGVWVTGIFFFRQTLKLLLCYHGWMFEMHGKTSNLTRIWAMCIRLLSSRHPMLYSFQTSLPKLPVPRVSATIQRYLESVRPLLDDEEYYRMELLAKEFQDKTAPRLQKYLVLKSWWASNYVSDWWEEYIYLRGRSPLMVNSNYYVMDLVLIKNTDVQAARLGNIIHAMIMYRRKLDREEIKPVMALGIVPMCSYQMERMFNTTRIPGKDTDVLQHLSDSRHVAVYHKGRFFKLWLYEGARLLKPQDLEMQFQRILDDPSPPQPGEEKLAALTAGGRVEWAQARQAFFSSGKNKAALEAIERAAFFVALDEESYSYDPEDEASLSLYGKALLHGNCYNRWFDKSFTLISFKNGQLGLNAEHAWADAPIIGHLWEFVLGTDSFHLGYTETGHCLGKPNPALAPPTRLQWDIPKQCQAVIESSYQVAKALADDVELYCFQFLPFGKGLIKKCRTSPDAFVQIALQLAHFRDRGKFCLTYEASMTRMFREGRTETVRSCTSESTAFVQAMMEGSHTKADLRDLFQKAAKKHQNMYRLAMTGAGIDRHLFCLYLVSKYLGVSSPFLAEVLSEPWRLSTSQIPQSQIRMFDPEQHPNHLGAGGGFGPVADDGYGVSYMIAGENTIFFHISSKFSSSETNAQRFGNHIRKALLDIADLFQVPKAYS

[2] = target: T2, Carnitine O-palmitoyltransferase 1, liver isoform (Rattus norvegicus, UniProt P32198); test: (§1) SUPPLEMENTARY: Inhibition of Carnitine palmitoyltransferase 1, liver isoform
T2 sequence (P32198 whole entry): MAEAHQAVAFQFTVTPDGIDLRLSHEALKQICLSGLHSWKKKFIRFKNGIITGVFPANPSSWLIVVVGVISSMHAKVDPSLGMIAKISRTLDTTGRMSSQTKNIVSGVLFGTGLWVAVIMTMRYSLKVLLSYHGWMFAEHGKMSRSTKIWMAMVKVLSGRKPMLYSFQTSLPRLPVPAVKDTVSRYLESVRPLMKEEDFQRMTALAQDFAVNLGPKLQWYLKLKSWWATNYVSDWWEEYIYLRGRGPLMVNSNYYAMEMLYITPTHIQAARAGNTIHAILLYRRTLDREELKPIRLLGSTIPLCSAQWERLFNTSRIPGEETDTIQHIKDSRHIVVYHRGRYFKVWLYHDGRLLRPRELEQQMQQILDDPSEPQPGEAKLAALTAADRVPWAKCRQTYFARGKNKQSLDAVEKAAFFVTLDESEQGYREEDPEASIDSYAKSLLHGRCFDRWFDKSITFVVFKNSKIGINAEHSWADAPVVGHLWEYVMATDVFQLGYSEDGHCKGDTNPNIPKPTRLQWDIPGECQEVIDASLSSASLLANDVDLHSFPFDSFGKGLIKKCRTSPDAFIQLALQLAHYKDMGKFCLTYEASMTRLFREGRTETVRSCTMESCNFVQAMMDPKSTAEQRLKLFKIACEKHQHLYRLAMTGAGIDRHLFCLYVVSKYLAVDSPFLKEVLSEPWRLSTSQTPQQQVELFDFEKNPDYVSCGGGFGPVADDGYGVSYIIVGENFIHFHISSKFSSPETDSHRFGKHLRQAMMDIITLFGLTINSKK

[3] = target: T3, Carnitine O-palmitoyltransferase 1, liver isoform (Homo sapiens, UniProt P50416); test: as §1
T3 sequence (P50416 whole entry): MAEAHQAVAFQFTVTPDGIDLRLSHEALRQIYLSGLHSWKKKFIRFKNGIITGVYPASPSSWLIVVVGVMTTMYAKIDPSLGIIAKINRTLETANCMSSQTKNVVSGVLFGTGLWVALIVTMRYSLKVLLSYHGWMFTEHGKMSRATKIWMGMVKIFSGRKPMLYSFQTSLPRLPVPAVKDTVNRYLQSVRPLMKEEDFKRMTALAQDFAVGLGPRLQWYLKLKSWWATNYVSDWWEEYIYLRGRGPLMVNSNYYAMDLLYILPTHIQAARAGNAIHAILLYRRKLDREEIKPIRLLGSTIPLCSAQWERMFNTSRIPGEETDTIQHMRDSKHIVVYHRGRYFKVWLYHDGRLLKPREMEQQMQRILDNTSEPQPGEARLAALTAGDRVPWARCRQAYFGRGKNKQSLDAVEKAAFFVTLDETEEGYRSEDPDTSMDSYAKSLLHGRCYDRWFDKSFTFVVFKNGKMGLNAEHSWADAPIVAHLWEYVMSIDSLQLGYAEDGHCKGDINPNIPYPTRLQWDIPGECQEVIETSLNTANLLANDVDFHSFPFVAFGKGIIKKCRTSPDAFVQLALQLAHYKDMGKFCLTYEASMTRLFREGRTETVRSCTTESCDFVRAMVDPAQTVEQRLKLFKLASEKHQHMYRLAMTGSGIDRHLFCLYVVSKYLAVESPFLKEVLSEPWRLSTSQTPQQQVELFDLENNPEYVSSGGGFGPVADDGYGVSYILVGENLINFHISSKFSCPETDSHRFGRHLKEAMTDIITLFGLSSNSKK

[4] = target: T4, Carnitine O-palmitoyltransferase 2, mitochondrial (Homo sapiens, UniProt P23786); test: (§2) SUPPLEMENTARY: Inhibition of Carnitine palmitoyltransferase 2
T4 sequence (P23786 whole entry): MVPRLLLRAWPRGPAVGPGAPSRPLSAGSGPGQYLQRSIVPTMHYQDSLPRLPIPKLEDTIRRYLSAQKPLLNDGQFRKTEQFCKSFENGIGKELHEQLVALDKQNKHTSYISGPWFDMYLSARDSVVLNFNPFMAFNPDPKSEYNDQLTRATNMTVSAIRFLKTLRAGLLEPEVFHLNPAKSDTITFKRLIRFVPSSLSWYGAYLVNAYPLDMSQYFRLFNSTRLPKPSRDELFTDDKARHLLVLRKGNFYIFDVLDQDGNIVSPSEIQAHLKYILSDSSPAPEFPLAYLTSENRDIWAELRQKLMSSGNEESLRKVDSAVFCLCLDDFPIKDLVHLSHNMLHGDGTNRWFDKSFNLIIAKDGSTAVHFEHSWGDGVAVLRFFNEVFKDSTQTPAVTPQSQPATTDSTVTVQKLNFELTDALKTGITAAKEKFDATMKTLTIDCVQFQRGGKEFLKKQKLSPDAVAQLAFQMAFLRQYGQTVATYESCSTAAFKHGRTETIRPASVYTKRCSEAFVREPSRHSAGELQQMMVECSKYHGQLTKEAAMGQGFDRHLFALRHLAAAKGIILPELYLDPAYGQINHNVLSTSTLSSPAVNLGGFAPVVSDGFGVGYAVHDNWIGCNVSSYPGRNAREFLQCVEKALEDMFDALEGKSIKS

[5] = target: T5, Carnitine O-palmitoyltransferase 2, mitochondrial (Rattus norvegicus, UniProt P18886); test: as §2
T5 sequence (P18886 whole entry): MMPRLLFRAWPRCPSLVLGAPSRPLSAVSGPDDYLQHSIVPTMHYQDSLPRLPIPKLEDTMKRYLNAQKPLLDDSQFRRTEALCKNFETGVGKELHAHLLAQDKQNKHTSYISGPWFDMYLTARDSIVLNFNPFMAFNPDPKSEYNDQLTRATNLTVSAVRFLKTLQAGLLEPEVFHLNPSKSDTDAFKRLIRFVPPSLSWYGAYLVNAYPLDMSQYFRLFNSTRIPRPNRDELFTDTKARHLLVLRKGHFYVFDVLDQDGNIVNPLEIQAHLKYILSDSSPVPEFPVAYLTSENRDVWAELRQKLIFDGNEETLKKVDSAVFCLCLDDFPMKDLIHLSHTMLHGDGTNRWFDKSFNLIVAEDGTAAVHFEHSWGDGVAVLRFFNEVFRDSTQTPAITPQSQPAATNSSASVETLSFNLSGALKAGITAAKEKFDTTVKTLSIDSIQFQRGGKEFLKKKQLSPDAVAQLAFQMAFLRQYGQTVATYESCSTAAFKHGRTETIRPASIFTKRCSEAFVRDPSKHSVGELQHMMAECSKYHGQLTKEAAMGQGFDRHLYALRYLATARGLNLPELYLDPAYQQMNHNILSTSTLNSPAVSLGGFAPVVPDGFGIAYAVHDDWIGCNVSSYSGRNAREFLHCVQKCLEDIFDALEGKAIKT

[6] = SUPPLEMENTARY: PAMPA permeability assay; type: physicochemical; details: read-out: Permeability
[7] = SUPPLEMENTARY: Lipophilicity (log D) Determination by high-throughput shake-flask; type: physicochemical; details: octanol/water
[8] = SUPPLEMENTARY: Lyophilisation Solubility Assay (LYSA); type: physicochemical; details: read-out: Kinetic_solubility

Structure (SMILES): COc1ccc(Cl)cc1CN1C(=O)OCc2ccc(C(=O)Nc3nc(CC(=O)O)cs3)cc21
- IC50 [1]: 21.9 µM
- IC50 [2]: 0.203 µM
- IC50 [3]: 0.132 µM
- IC50 [4]: > 100 µM
- IC50 [5]: > 100 µM
- Papp [6]: 1.7 ×10⁻⁶ cm/s
- logD [7]: 0.06
- solubility kinetic [8]: 50 µg/mL (≈ 102 µM)

Structure (SMILES): O=C(COc1ccccc1)N1CCCC[C@@H]1c1noc(-c2ccc3[nH]c(=O)c(=O)[nH]c3c2)n1
- IC50 [1]: > 100 µM
- IC50 [2]: 0.502 µM
- IC50 [3]: 0.14 µM
- IC50 [4]: 17 µM
- IC50 [5]: > 100 µM
- Papp [6]: 0.47 ×10⁻⁶ cm/s
- logD [7]: 2.25
- solubility kinetic [8]: 50 µg/mL (≈ 112 µM)

Structure (SMILES): NS(=O)(=O)c1ccc(-c2noc(C3C4CC4CN3C(=O)COc3ccccc3)n2)cc1 (stereo not given)
- IC50 [1]: > 100 µM
- IC50 [2]: 0.0908 µM
- IC50 [3]: 0.11 µM
- IC50 [4]: > 100 µM
- IC50 [5]: > 100 µM
- Papp [6]: 5.17 ×10⁻⁶ cm/s
- logD [7]: 2.04
- solubility kinetic [8]: 45 µg/mL (≈ 102 µM)

Structure (SMILES): Cc1cc(-c2noc([C@H]3CCCCN3C(=O)COc3ccccc3)n2)n(C)n1
- IC50 [1]: > 100 µM
- IC50 [2]: 0.507 µM
- IC50 [3]: 0.119 µM
- IC50 [4]: > 100 µM
- IC50 [5]: > 100 µM
- Papp [6]: 4.34 ×10⁻⁶ cm/s
- logD [7]: 3.15
- solubility kinetic [8]: 30 µg/mL (≈ 78.7 µM)

Structure (SMILES): COc1ccc(Cl)cc1S(=O)(=O)N1CC(C(=O)O)Oc2ccc(C(=O)Nc3ccccc3F)cc21 (stereo not given)
- IC50 [1]: > 100 µM
- IC50 [2]: 0.169 µM
- IC50 [3]: 0.218 µM
- IC50 [4]: > 100 µM
- IC50 [5]: > 100 µM
- Papp [6]: 0.38 ×10⁻⁶ cm/s
- logD [7]: -0.49
- solubility kinetic [8]: > 617 µg/mL

Structure (SMILES): CS(=O)(=O)c1cccc(-c2nc([C@H]3CCCCN3C(=O)COc3ccccc3)no2)c1
- IC50 [1]: > 100 µM
- IC50 [2]: 0.125 µM
- IC50 [3]: 0.206 µM
- IC50 [4]: 22.3 µM
- IC50 [5]: > 100 µM
- Papp [6]: 2.96 ×10⁻⁶ cm/s
- logD [7]: 2.39
- solubility kinetic [8]: 18 µg/mL (≈ 40.8 µM)

Structure (SMILES): CC(=O)Nc1cccc(-n2nnc([C@H]3CCCCN3C(=O)COc3ccccc3)n2)c1
- IC50 [1]: > 100 µM
- IC50 [2]: 0.0714 µM
- IC50 [3]: 0.111 µM
- IC50 [4]: 8.06 µM
- IC50 [5]: > 100 µM
- Papp [6]: 3.5 ×10⁻⁶ cm/s
- logD [7]: 3
- solubility kinetic [8]: 26 µg/mL (≈ 61.8 µM)

Structure (SMILES): COc1ccc(C)cc1S(=O)(=O)n1ccc2ccc(C(=O)Nc3ccc(CC(=O)O)cc3)cc21
- IC50 [1]: 1.54 µM
- IC50 [2]: 0.118 µM
- IC50 [3]: 0.203 µM
- IC50 [4]: 83.9 µM
- IC50 [5]: > 100 µM
- Papp [6]: 2.82 ×10⁻⁶ cm/s
- logD [7]: 0.79
- solubility kinetic [8]: 226 µg/mL (≈ 472 µM)

Structure (SMILES): O=C(COc1ccccc1)N1CCCC[C@@H]1c1noc(-c2cnc3[nH]cnc3c2)n1
- IC50 [1]: 35.5 µM
- IC50 [2]: 0.238 µM
- IC50 [3]: 0.0902 µM
- IC50 [4]: 24.3 µM
- IC50 [5]: 33.6 µM
- Papp [6]: 3.53 ×10⁻⁶ cm/s
- logD [7]: 2.36
- solubility kinetic [8]: 109 µg/mL (≈ 270 µM)

Structure (SMILES): COc1ccc(Cl)cc1CN1C(=O)OC(C)(C)c2ccc(C(=O)Nc3nccs3)cc21
- IC50 [1]: > 100 µM
- IC50 [2]: > 10 µM
- IC50 [3]: 0.278 µM
- IC50 [4]: > 100 µM
- IC50 [5]: > 100 µM
- Papp [6]: 0.3 ×10⁻⁶ cm/s
- logD [7]: > 3
- solubility kinetic [8]: < 1 µg/mL
